For orientation: IC50 means the concentration that gives 50% inhibition.

The subject of assay [1] is H526 cells. In words: Growth inhibition and isobologram/combination index, H526. The assay is classed as cell-based, human. The conditions noted are these: for effect of combination with 30C10-PBD: H526 cells; for IC50: H526, 5 days, alone. As to the method:
(§1) Two SCLC cell lines H526 and H1048, which expresses ˜2,500 copies of TMEFF1 on the cell surface per cell, were seeded onto 96 well plates at 2,000 cells/well on the day of treatment. To distinguish synergy from additivity of the combination of 30C10-PBD with niraparib (selleckchem, Cat # S2741), etoposide (Cell Signaling Technology, Cat #2200S) or cisplatin (Sigma, Cat # P4394), for each combination, a specific isobologram was constructed and the combination-index was calculated as described by Chou, TC and Talalay P (Quanttative analysis of dose-effect relationships: the combined effects of multiple drugs or enzyme inhibitors, Adv Enzyme Regul, 1984). IC50 value was defined as the drug concentration reducing by 50% the growth of treated cells compared with control. IC50 values of each drug was determined by plating H526 or H1048 cells and adding 30C10-PBD, niraparib, etoposide or cisplatin at 10-fold dilutions spanning their probable range of activity. Concentrations ranging from 0.0001-1 ug/ml were used for 30C10-PBD, from 0.01 to 100 uM for Niraparib, from 0.001-10 uM for etoposide and from 0.01-100 uM for cisplatin. Cell viability was measured 5 days later by CellTiter Glo® Luminescent Cell viability Assay™ (Promega, Madison, Wis.) according to manufacturer's instructions. Each IC50 was graphically derived from the growth curve graphed by Prism™ showing percent survival vs log drug concentrations.
(§2) Combination-index (CI) was defined as follows: CI=[C]A50/IC50A+[C]B50/IC50B, where [C]A50 and [C]B50 are the concentrations in combination inducing the IC50 effect. A CI of less than, equal to, or more than 1 indicates, respectively, synergy, additivity, or antagonism.
(§3) The 50% growth-inhibitory activity of the drug combinations was measured after 5 days of treatment. The line of additivity for the isobologram was constructed by interpolating the two points corresponding to the IC50 of the two drugs alone. Graphically, synergy, additivity, and antagonism are indicated by a point plotted below, on, or above the line of additivity, respectively.

The test system of assay [2] is H1048 cells. In words: Growth inhibition and isobologram/combination index, H1048. The assay is classed as cell-based, human. The settings on record: for effect of combination with 30C10-PBD: H1048 cells; for IC50: H1048, 5 days, alone. The procedure: as §1, §2, §3
The mark [3] stands for this setting: H526, combination with 30C10-PBD 0.3 ng/ml.
Setting [4] is: H526, combination with 30C10-PBD 0.6 ng/ml.
The mark [5] stands for this setting: H1048, combination with 30C10-PBD 0.1 ng/ml.
Where [6] appears, read: H1048, combination with 30C10-PBD 0.3 ng/ml.

The structures appear in SMILES notation.

Regarding `NC(=O)c1cccc2cn(-c3ccc([C@@H]4CCCNC4)cc3)nc12` [Niraparib, niraparib], the CI in assay [1] (setting [3]) is reported as 0.762; in assay [1] (setting [4]), 0.619; in assay [2] (setting [5]) it was 0.949; in assay [2] (setting [6]), 0.888. Also, the effect result in assay [1] (setting [3]) is on record as “synergy (A CI of less than, equal to, or more than 1 indicates, respectively, synergy, additivity, or antagonism)”; in assay [1] (setting [4]) it was “synergy (A CI of less than, equal to, or more than 1 indicates, respectively, synergy, additivity, or antagonism)”; in assay [2] (setting [5]) it was “synergy (A CI of less than, equal to, or more than 1 indicates, respectively, synergy, additivity, or antagonism)”; in assay [2] (setting [6]), “synergy (A CI of less than, equal to, or more than 1 indicates, respectively, synergy, additivity, or antagonism)”. The “effect of combination with 30C10-PBD” value in assay [1] and in assay [2] was “Synergistic effect” throughout. Besides, the 50% inhibitory concentration (IC50) was 3240 nM in assay [1] (Homo sapiens, NCI-H526, 120 h) and 1070 nM in assay [2] (Homo sapiens, NCI-H1048, 120 h).

Consider `COc1cc([C@@H]2c3cc4c(cc3[C@@H](O[C@@H]3O[C@@H]5CO[C@@H](C)O[C@H]5[C@H](O)[C@H]3O)[C@H]3COC(=O)[C@H]23)OCO4)cc(OC)c1O` [Etoposide, etoposide], for which the IC50 in assay [1] stood at 330 nM; in assay [2] it was 160 nM. Further, the CI is 0.847 in assay [1] (setting [3]), 0.801 in assay [1] (setting [4]), 0.932 in assay [2] (setting [5]) and 0.998 in assay [2] (setting [6]). Moreover, the effect result is “synergy (A CI of less than, equal to, or more than 1 indicates, respectively, synergy, additivity, or antagonism)” in assay [1] (setting [3]); “synergy (A CI of less than, equal to, or more than 1 indicates, respectively, synergy, additivity, or antagonism)” in assay [1] (setting [4]); “synergy (A CI of less than, equal to, or more than 1 indicates, respectively, synergy, additivity, or antagonism)” in assay [2] (setting [5]); “synergistic effect” in assay [2] (H1048, combination with 30C10-PBD 0.1 ng/ml, listed as etoposide); “additive” in assay [2] (setting [6]); “additive effect” in assay [2] (H1048, combination with 30C10-PBD 0.3 ng/ml, listed as etoposide). In addition, the “effect of combination with 30C10-PBD” value in assay [1] is “synergistic effect”.

For `N.N.[Cl][Pt][Cl]` [Cisplatin, cisplatin], the IC50 in assay [1] was found to be 240 nM; in assay [2], 620 nM. For the same molecule, the CI in assay [1] (setting [3]) was determined as 0.865; in assay [1] (setting [4]), 0.703; in assay [2] (setting [5]), 0.985; in assay [2] (setting [6]), 1.008. Besides, the effect result is on record as “synergy (A CI of less than, equal to, or more than 1 indicates, respectively, synergy, additivity, or antagonism)” in assay [1] (setting [3]); “synergy (A CI of less than, equal to, or more than 1 indicates, respectively, synergy, additivity, or antagonism)” in assay [1] (setting [4]); “additive” in assay [2] (setting [5]); “additive” in assay [2] (setting [6]). Besides, the “effect of combination with 30C10-PBD” value in assay [1] is “synergistic effects”; in assay [2], “additive effects”.

Values taken from patent publication US11312769B2, “Anti-TMEFF1 antibodies and antibody drug conjugates” (Bluefin BioMedicine, Inc., priority 2017, dated 2022).
